{"source": "patent US20260042770A1", "about": "“NOVEL SULFONES AND THEIR USE AS NEUROPROTECTIVE AND/OR NEURORESTORATIVE AGENTS” (GENECODE, priority 2022, published 2026)", "data": [{"molecular_target": "T1, GFRα1-RET (Homo sapiens, UniProt P56159)", "T1 construct": "expressed in transfected cells; host or cells: MG87 murine fibroblasts stably transfected with PathDetect Elk-1, GFRα1 and RET", "T1 sequence (P56159 25-429 limits assumed)": "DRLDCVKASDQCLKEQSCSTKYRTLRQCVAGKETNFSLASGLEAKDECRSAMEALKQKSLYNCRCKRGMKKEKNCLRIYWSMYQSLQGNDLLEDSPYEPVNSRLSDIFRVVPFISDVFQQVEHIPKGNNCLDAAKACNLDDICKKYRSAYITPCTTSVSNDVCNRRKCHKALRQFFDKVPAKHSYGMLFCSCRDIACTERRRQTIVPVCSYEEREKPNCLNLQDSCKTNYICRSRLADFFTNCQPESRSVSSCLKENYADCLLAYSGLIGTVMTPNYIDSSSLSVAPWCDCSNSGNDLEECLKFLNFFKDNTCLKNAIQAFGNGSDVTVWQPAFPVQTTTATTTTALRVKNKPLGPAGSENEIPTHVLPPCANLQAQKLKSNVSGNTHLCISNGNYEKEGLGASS", "test": "Elk1 luciferase reporter-gene assay in cells expressing GFRα1-RET", "format": "cell-based", "details": "agonist/activator activity of Elk1 signaling; MG87 murine fibroblast stably transfected with PathDetect Elk-1, GFRα1 and RET; 6 concentrations, duplicate, two independent runs", "experimental": "For EC50 determination, a dose-response test was performed using 6 concentrations of each tested compound. Dose-response curves were fitted using the sigmoidal dose-response (variable slope) analysis in GraphPad Prism program (Graph Pad Inc) and EC50 of agonist/activator activity was calculated. Dose-response experiments were all performed in duplicate, two times independently.", "units": {"EC50": "nM"}, "values": [{"smiles": "O=C(c1ccc(F)cc1Cl)N1C[C@H]2CC[C@@H](C1)N2c1cc(S(=O)(=O)C2CCN(c3ccccc3)CC2)ccc1O", "note": "[Cpd 030, (2-chloro-4-fluoro-phenyl)-[(1S,5R)-8-[2-hydroxy-5-[(1-phenyl-4-piperidyl)sulfonyl]phenyl]-3,8-diazabicyclo[3.2.1]octan-3-yl]methanone]", "EC50": "< 1000"}, {"smiles": "O=C(c1ccc(F)cc1Cl)N1C[C@H]2CC[C@@H](C1)N2c1cc(S(=O)(=O)C2CCN(CCc3ccccc3)CC2)ccc1O", "note": "[Cpd 031, (2-chloro-4-fluoro-phenyl)-[(1S,5R)-8-[2-hydroxy-5-[[1-(2-phenylethyl)-4-piperidyl]sulfonyl]phenyl]-3,8-diazabicyclo[3.2.1]octan-3-yl]methanone]", "EC50": "1000 to 10000"}, {"smiles": "Cc1cc(S(=O)(=O)CC(C)(C)C)cc(N2[C@@H]3CC[C@H]2CN(C(=O)c2ccc(F)cc2Cl)C3)c1O", "note": "[Cpd 032, (2-chloro-4-fluoro-phenyl)-[(1S,5R)-8-[5-(2,2-dimethylpropylsulfonyl)-2-hydroxy-3-methyl-phenyl]-3,8-diazabicyclo[3.2.1]octan-3-yl]methanone]", "EC50": "1000 to 10000"}, {"smiles": "CC(C)(C)CS(=O)(=O)c1cc(Cl)c(O)c(N2[C@@H]3CC[C@H]2CN(C(=O)c2ccc(F)cc2Cl)C3)c1", "note": "[Cpd 033, [(1S,5R)-8-[3-chloro-5-(2,2-dimethylpropylsulfonyl)-2-hydroxy-phenyl]-3,8-diazabicyclo[3.2.1]octan-3-yl]-(2-chloro-4-fluoro-phenyl)methanone]", "EC50": "< 1000"}, {"smiles": "CC(C)(C)CS(=O)(=O)c1cc(Cl)c(OCCO)c(N2[C@@H]3CC[C@H]2CN(C(=O)c2ccc(F)cc2Cl)C3)c1", "note": "[Cpd 034, [(1S,5R)-8-[3-chloro-5-(2,2-dimethylpropylsulfonyl)-2-(2-hydroxyethoxy)phenyl]-3,8-diazabicyclo[3.2.1]octan-3-yl]-(2-chloro-4-fluoro-phenyl)methanone]", "EC50": "1000 to 10000"}, {"smiles": "CC(C)(C)CS(=O)(=O)c1cc(Cl)c(Cl)c(N2[C@@H]3CC[C@H]2CN(C(=O)c2ccc(F)cc2Cl)C3)c1", "note": "[Cpd 035, (2-chloro-4-fluoro-phenyl)-[(1S,5R)-8-[2,3-dichloro-5-(2,2-dimethylpropylsulfonyl)phenyl]-3,8-diazabicyclo[3.2.1]octan-3-yl]methanone]", "EC50": "< 1000"}, {"smiles": "Cc1c(Cl)cc(S(=O)(=O)CC(C)(C)C)cc1N1[C@@H]2CC[C@H]1CN(C(=O)c1ccc(F)cc1Cl)C2", "note": "[Cpd 036, [(1S,5R)-8-[3-chloro-5-(2,2-dimethylpropylsulfonyl)-2-methyl-phenyl]-3,8-diazabicyclo[3.2.1]octan-3-yl]-(2-chloro-4-fluoro-phenyl)methanone]", "EC50": "< 1000"}]}]}
